Measurements taken from paper PMC10065799, “High-throughput profiling of sequence recognition by tyrosine kinases and SH2 domains using bacterial peptide display” (eLife, 2023).

T1: c-Abl kinase domain (Mus musculus, UniProt P00520)
T1 sequence (P00520 242-493 limits assumed): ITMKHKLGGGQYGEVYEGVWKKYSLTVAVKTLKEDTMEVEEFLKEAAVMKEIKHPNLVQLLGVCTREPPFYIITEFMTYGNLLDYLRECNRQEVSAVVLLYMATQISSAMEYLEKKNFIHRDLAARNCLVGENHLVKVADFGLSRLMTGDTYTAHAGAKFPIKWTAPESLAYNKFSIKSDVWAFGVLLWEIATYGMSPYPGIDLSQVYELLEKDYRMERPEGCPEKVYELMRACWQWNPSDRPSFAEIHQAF


Legend:
c-Src kinase domain [1] = target: T2, c-Src kinase domain (Homo sapiens, UniProt P12931); assay: ADP-Quest continuous fluorimetric kinase assay (Michaelis-Menten parameters and initial rates); format: biochemical
Text: A fluorescence-based assay from Eurofins (ADP Quest) was used to measure the Michaelis-Menten kinetic parameters for phosphorylation of the consensus peptides by purified tyrosine kinase domains. In this assay, ADP production as a result of kinase activity is coupled to the production of resorufin, a fluorophore that emits signal at 590 nm. For all experiments, the assay reactions were set up as described in the provided assay kit protocol, in a 384 well plate format. The peptide solutions were serially diluted in 100 mM Tris, pH 8.0, and the kinases were diluted to 50 nM in buffer (10 mM HEPES, 100 mM NaCl, 1 mM TCEP, 5 mM MgCl2, 10% (v/v) glycerol). The final reaction mixtures contained 10 nM of kinase with 100 μM of ATP. Reactions were initiated with the addition of 1 mM ATP into a 50 μL reaction mixture for a final concentration of 100 μM ATP. Phosphorylation reaction progress was monitored by measuring fluorescence at excitation 530 nm and emission 590 nm every 2 min at 37 °C on a plate reader (BioTek Synergy Neo 2). The fluorescence units (RFU) were converted to μM ADP by comparison to a standard curve, and the initial rates were extracted from the linear regime of the reaction progress curves. Initial rates were also measured for samples containing each kinase but lacking a peptide substrate, to account for background ATP hydrolysis. This background rate was subtracted from the rates measured in the presence of peptide. The subtracted rates were plotted as a function of substrate concentration and fit to the Michaelis-Menten equation to extract kcat and KM values.

EPHB2 kinase domain = assay: pTyr-Var library bacterial peptide display kinase screen (enrichment scores); format: biochemical, human; conditions: sheet EPHB2;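 further: log2 fold change in enrichment of variant over reference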
c-Src kinase domain [2] = target: T2, c-Src kinase domain; assay: as above; format: biochemical; conditions: sheet "Src"
c-Src kinase domain [3] = target: T2, c-Src kinase domain; assay: RP-HPLC assay to measure peptide phosphorylation kinetics; format: biochemical; conditions: purified peptide substrate
EPHB1 kinase domain = assay: pTyr-Var library bacterial peptide display kinase screen (enrichment scores); format: biochemical, human; conditions: for Screen (variant relative to reference peptide, measured in the pTyr-Var library screen): sheet "EPHB1", variant seq vs reference seq, bacterial peptide display enrichment; for Screen: sheet EPHB1, effect of the variant peptide relative to its reference peptide in the pTyr-Var library screen (enrichment scores)
c-Abl kinase domain = target: T1, c-Abl kinase domain; assay: as above; format: biochemical; conditions: sheet "Abl"; effect of variant peptide relative to its reference peptide in pTyr-Var library screen (enrichment);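 further: log2 fold change in enrichment of variant over reference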
Fer kinase domain = assay: as above; format: biochemical, mouse; conditions: sheet "Fer"
[4] = target: human c-Src kinase domain (residues 260-528) (human) (UniProt P12931)
[5] = ADP-Quest assay, c-Src kinase domain 10 nM, 100 μM ATP, 37 °C, three to five replicates, error = standard error of global Michaelis-Menten fit
[6] = effect of variant peptide relative to its reference peptide in the pTyr-Var library screen (enrichment scores)
[7] = effect of the variant peptide relative to its reference peptide in the pTyr-Var library screen
[8] = variant peptide versus its reference peptide in the pTyr-Var library screen
[9] = effect of the variant relative to its reference peptide in the pTyr-Var library screen
[10] = variant peptide relative to its reference peptide, pTyr-Var library screen enrichment
[11] = value of the variant peptide against its reference peptide in the pTyr-Var library screen with Fer

| Molecule | Screen (EPHB2 kinase domain; [6]) | Screen (c-Src kinase domain [2]; [8]) | Screen (EPHB1 kinase domain) | Screen (Fer kinase domain; [11]) | also measured |
| --- | --- | --- | --- | --- | --- |
| Ac-GPDEPIYEWWWIKKKG-NH2 [Fer Consensus, Fer consensus substrate peptide from X5-Y-X5 screen] | – | – | – | – | Km (c-Src kinase domain [1]; [5]): 8 ± 4 µM; kcat (c-Src kinase domain [1]; [5]): 0.4±0.1 s^–1; phosphorylation of consensus peptide by c-Src (initial rate relative to cognate consensus) (c-Src kinase domain [1]; low concentration: peptide 20 μM, kinase 10–50 nM, Figure 2—figure supplement 2): significant off-target activity |
| Ac-IGEGTYRTVFK-NH2 [CDK5_Y15_G16R, pTyr-Var library variant phosphosite peptide] | -2.132 | – | – | – | Screen (c-Src kinase domain [2]; [7]): -3.502 |
| Ac-SGDINYGQFAQ-NH2 [PLCG1_Y210_T209N, pTyr-Var library variant phosphosite peptide] | – | -3.177 | – | – | Phosphorylation Rate (c-Src kinase domain [3]): 0.307 s⁻¹ |
| CEQELYSQLVF [WAS_Y102_W97C_YF] | – | -0.1333 | – | – | Screen (EPHB2 kinase domain; [9]): -2.338; Screen (variant relative to reference peptide, measured in the pTyr-Var library screen) (EPHB1 kinase domain): -2.23; Screen (c-Abl kinase domain): -3.187; Screen (Fer kinase domain; [10]): -0.3985 |
| DLHGIYQKLVI [TTN_Y21998_R21995H] | – | 0.02812 | – | – | Screen (EPHB2 kinase domain; [9]): 1.178; Screen (variant relative to reference peptide, measured in the pTyr-Var library screen) (EPHB1 kinase domain): 1.244; Screen (c-Abl kinase domain): -2.013; Screen (Fer kinase domain; [10]): 0.5861 |
| EPFELYCEMGS [CBL_Y371_Q367P_YF] | -0.2507 | – | -0.3443 | – | – |
| FAELVYTVFWH [ASS1_Y322_G324V] | 0.0379 | – | 0.03348 | -0.2764 | Screen (c-Src kinase domain [2]; [7]): 0.03298 |
| FGSIMYEFVGK [SLC18A1_Y251_V249I] | -1.759 | -1.273 | – | – | Screen (variant relative to reference peptide, measured in the pTyr-Var library screen) (EPHB1 kinase domain): -1.716; Screen (Fer kinase domain; [10]): -0.674 |
| GNLLIYTEFGN [HGD_Y166_K171N] | 0.7326 | – | 0.6139 | – | Screen (c-Src kinase domain [2]; [7]): -0.3322 |
| HAVFIYDICHV [TWNK_Y508_V507I_YF] | – | -0.8811 | – | – | Screen (EPHB2 kinase domain; [9]): 1.461; Screen (variant relative to reference peptide, measured in the pTyr-Var library screen) (EPHB1 kinase domain): 1.032; Screen (Fer kinase domain; [10]): 0.388 |
| HKDNNYISMWF [PAPOLG_Y432_V433I] | -1.118 | – | -1.294 | -1.378 | – |
| IMNLLYHVVGW [GBA_Y412_T408M] | -0.4774 | – | -0.2669 | -0.4668 | Screen (c-Src kinase domain [2]; [7]): 0.1521 |
| ISKTWYSAEQF [CD207_Y217_P213S] | -0.7343 | – | -0.7306 | – | – |
| KAPPTYDNVLQ [CYP3A4_Y347_T349N] | -1.141 | – | -0.1539 | -0.1979 | – |
| KELALYDENWF [RPS19_Y48_P47L] | 4.277 | – | 4.03 | – | Screen (Fer kinase domain; [10]): 3.889 |
| LDAFIYNAAVL [GRIN2A_Y730_D731N] | -1.324 | – | -1.471 | -3.433 | Screen (c-Src kinase domain [2]; [7]): -1.489 |

| Molecule | Screen (EPHB2 kinase domain; [6]) | Screen (c-Src kinase domain [2]; [8]) | Screen (EPHB1 kinase domain) | Screen (Fer kinase domain; [11]) | also measured |
| --- | --- | --- | --- | --- | --- |
| LDVGEYCVPRG [BEX1_Y43_A40V] | -0.4602 | – | -0.3957 | – | – |
| LPHVIYCRLWC [SMAD2_Y128_R133C] | 1.893 | 1.251 | – | – | Screen (variant relative to reference peptide, measured in the pTyr-Var library screen) (EPHB1 kinase domain): 2.05 |
| LTERGYSFTTK [ACTG1_Y198_T203K] | 1.886 | – | 1.554 | 1.86 | – |
| MARDIYQASFF [LTK_Y672_R673Q_YF] | 1.961 | – | 2.318 | 3.102 | Screen (c-Src kinase domain [2]; [7]): 3.363 |
| NSNSDYVDILP [SH2D1B_Y127_V130I] | 0.0762 | – | – | – | Screen (variant relative to reference peptide, measured in the pTyr-Var library screen) (EPHB1 kinase domain): -0.2012 |
| PLDGEYFILQI [TP53_Y327_T329I] | – | -0.4119 | – | – | Screen (EPHB2 kinase domain; [9]): 0.5203; Screen (variant relative to reference peptide, measured in the pTyr-Var library screen) (EPHB1 kinase domain): 0.4645 |
| PLDGEYFTLPI [TP53_Y327_Q331P] | – | 1.231 | – | – | Screen (EPHB2 kinase domain; [9]): 3.847; Screen (variant relative to reference peptide, measured in the pTyr-Var library screen) (EPHB1 kinase domain): 3.664; Screen (Fer kinase domain; [10]): 0.4845 |
| PLFGEYFTLQI [TP53_Y327_D324Y_YF] | – | 1.11 | – | – | Screen (EPHB2 kinase domain; [9]): 0.9055; Screen (variant relative to reference peptide, measured in the pTyr-Var library screen) (EPHB1 kinase domain): 1.054 |
| PSAELYSFALP [PDGFRB_Y716_N718Y_YF] | 2.567 | 2.409 | 2.14 | 1.182 | – |
| QNTGFYFDLFG [PTPN11_Y62_D61Y_YF] | -4.029 | -1.182 | -3.875 | – | – |
| QTPVLYAMLFH [MPZ_Y220_D224Y_YF] | -1.088 | – | -0.7178 | -0.58 | Screen (c-Src kinase domain [2]; [7]): -0.1434 |
| SMEGLYSSAQD [CLIC5_Y111_T114A] | -0.2512 | – | -0.2291 | 0.3754 | Screen (c-Src kinase domain [2]; [7]): 0.03653 |
| TSSAVYMNLAS [GATAD2B_Y317_I316V] | -2.447 | – | -2.461 | -2.177 | Screen (c-Src kinase domain [2]; [7]): -0.9997 |
| VATRWYWSPEL [CDKL5_Y177_R178W] | 2.978 | – | 3.423 | – | – |
| Ac-GPDEPIYEWWWIKKKG-NH2 [Fer Consensus peptide Ac-…-NH2] | – | – | – | – | KM (μM) of phosphorylation, Michaelis-Menten analysis, ADP-Quest assay [4]: 8 µM |
